Data from patent US7888329B2, “Substituted aryl piperidinylalkynyladenosines as A2AR agonists” (PGxHealth, LLC, priority 2006, dated 2011).

Experiments:
human A1 AR = biological target: T1, human A1 AR (Homo sapiens, UniProt P30542); assay: Radioligand competition binding with 125I-ABA, membranes of CHO K1 cells stably expressing the receptor; conditions: Ki derived from IC50, class symbols
T1 construct: expressed in transfected cells; membranes
T1 sequence (P30542 1-326): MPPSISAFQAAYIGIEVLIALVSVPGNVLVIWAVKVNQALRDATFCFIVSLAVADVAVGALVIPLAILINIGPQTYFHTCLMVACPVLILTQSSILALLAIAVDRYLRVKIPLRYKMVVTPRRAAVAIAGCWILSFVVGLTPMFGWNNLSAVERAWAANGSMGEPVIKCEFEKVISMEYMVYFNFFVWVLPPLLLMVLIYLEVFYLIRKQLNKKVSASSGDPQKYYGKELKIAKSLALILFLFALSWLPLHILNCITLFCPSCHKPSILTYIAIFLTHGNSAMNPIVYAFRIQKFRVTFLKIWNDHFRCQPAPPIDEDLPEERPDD

[1] = test system: Purified human neutrophils; assay: Luminol enhanced chemiluminescence (neutrophil oxidative activity), fMLP stimulated; assay type: cell-based; conditions: Homo sapiens, Neutrophil; read-out: Functional
Excerpt: Chemiluminescence Methods: Luminol enhanced chemiluminescence, a measure of neutrophil oxidative activity, is dependent upon both superoxide production and mobilization of the granule enzyme myeloperoxidase. The light is emitted from unstable high-energy oxygen species such as hypochlorous acid and singlet oxygen generated by activated neutrophils.
Purified human neutrophils (2×10^6/ml) suspended in Hanks balanced salt solution containing 0.1% human serum albumin (HA), adenosine deaminase (1 U/mL) and rolipram (100 nM) were incubated (37 C) in a water bath for 15 min with or without rhTNF (10 U/ml). Following incubation 100 µL aliquots of the PMN were transferred to wells (White walled clear bottom 96 well tissue culture plates Costar #3670; 2 wells/condition) containing […] and luminol (final concentration 100M) with or without adenosine agonist (final agonist concentrations 0.01-1000 nM). The plate was incubated 5 min (37 C) and then fMLP (50 l in HA; final concentration […]) was added to all wells.
Peak chemiluminescence was determined with a Victor 1420 Multilabel Counter in the chemiluminescence mode using the Wallac Workstation software. Data are presented as peak chemiluminescence as percent of activity in the absence of an adenosine agonist. The EC50 was determined using PRISM software. All compounds were tested with PMNs from three separate donors.

[2] = biological target: T2, recombinant human A2A receptors (Homo sapiens, UniProt P29274); assay: Radioligand competition binding with 125I-APE or 125I-ZM241385, Sf9 cell membranes; conditions: 125I-APE or 125I-ZM241385, Sf9 membranes; class symbols
T2 construct: expressed in transfected cells; host or cells: Sf9 insect cells infected with virus; membranes
Procedure: Cell culture and membrane preparation. Sf9 cells were cultured in Grace's medium supplemented with 10% fetal bovine serum, 2.5 μg/ml amphotericin B and 50 μg/ml gentamycin in an atmosphere of 50% N2/50% O2. Viral infection was performed at a density of 2.5×10^6 cells/mL with a multiplicity of infection of two for each virus used. Infected cells were harvested 3 days post-infection and washed twice in insect PBS (PBS pH 6.3). Cells were then resuspended in lysis buffer (20 mM HEPES pH 7.5, 150 mM NaCl, 3 mM MgCl2, 1 mM α-mercaptoethanol (BME), 5 μg/mL leupeptin, 5 μg/mL pepstatin A, 1 μg/mL aprotinin, and 0.1 mM PMSF) and snap frozen for storage at −80° C. Cells were thawed on ice, brought to 30 mL total volume in lysis buffer, and burst by N2 cavitation (600 psi for 20 minutes). A low-speed centrifugation was performed to remove any unlysed cells (1000×g for 10 minutes), followed by a high-speed centrifugation (17,000×g for 30 minutes). The pellet from the final centrifugation was homogenized in buffer containing 20 mM HEPES pH 8, 1100 mM NaCl, 1% glycerol, 2 μg/mL leupeptin, 2 μg/mL pepstatin A, 2 μg/mL Aprotinin, 0.1 mM PMSF, and 10 μM GDP using a small glass homogenizer followed by passage through a 26 gauge needle. Membranes were aliquoted, snap frozen in liquid N2, and stored at −80° C.
Radioligand Binding Assays. […] Binding experiments were performed in triplicate with 5 μg (A2A) or 25 μg (A1 and A3) membrane protein in a total volume of 00.1 mL HE buffer (20 mM HEPES and 1 mM EDTA) with 1 U/mL adenosine deaminase and 5 mM MgCl2 with or without 50 μM GTPγS. Membranes were incubated with radioligands at room temperature for three hours (for agonists) or two hours (for antagonists) in Millipore Multiscreen® 96-well GF/C filter plates and assays were terminated by rapid filtration on a cell harvester (Brandel, Gaithersburg, Md.) followed by 4×150 μl washes over 30 seconds with ice cold 10 mM Tris-HCl, pH 7.4, 10 mM MgCl2. Nonspecific binding was measured in the presence of 50 μM NECA.

human A3 AR = biological target: T3, human A3 AR (Homo sapiens, UniProt P0DMS8); assay: Radioligand competition binding with 125I-ABA, membranes of HEK 293 cells stably expressing the receptor; conditions: Ki derived from IC50, class symbols
T3 construct: expressed in transfected cells; membranes
T3 sequence (P0DMS8 1-318): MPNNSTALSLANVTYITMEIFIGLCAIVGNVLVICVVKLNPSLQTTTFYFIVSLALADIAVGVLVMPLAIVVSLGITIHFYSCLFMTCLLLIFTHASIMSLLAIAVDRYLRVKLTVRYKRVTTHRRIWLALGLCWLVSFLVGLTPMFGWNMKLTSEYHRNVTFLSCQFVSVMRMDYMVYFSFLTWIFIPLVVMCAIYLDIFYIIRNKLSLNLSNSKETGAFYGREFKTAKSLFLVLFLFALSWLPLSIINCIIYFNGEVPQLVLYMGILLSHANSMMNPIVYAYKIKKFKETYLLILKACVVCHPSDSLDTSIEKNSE
Procedure: Cell culture and membrane preparation. Sf9 cells were cultured in Grace's medium supplemented with 10% fetal bovine serum, 2.5 μg/ml amphotericin B and 50 μg/ml gentamycin in an atmosphere of 50% N2/50% O2. Viral infection was performed at a density of 2.5×10^6 cells/mL with a multiplicity of infection of two for each virus used. Infected cells were harvested 3 days post-infection and washed twice in insect PBS (PBS pH 6.3). Cells were then resuspended in lysis buffer (20 mM HEPES pH 7.5, 150 mM NaCl, 3 mM MgCl2, 1 mM α-mercaptoethanol (BME), 5 μg/mL leupeptin, 5 μg/mL pepstatin A, 1 μg/mL aprotinin, and 0.1 mM PMSF) and snap frozen for storage at −80° C. Cells were thawed on ice, brought to 30 mL total volume in lysis buffer, and burst by N2 cavitation (600 psi for 20 minutes). A low-speed centrifugation was performed to remove any unlysed cells (1000×g for 10 minutes), followed by a high-speed centrifugation (17,000×g for 30 minutes). The pellet from the final centrifugation was homogenized in buffer containing 20 mM HEPES pH 8, 1100 mM NaCl, 1% glycerol, 2 μg/mL leupeptin, 2 μg/mL pepstatin A, 2 μg/mL Aprotinin, 0.1 mM PMSF, and 10 μM GDP using a small glass homogenizer followed by passage through a 26 gauge needle. Membranes were aliquoted, snap frozen in liquid N2, and stored at −80° C. Membranes from cells stably expressing the human A1 AR (CHO K1 cells) or A3 AR (HEK 293 cells) were prepared as described (Robeva et al., 1996).
Radioligand Binding Assays. Radioligand binding to recombinant human A2A receptors in Sf9 cell membranes was performed using either the radiolabeled agonist, ^125I-APE (Luthin et al., 1995) or the radiolabeled antagonist, ^125I-ZM241385 (^125I-ZM). To detect the high affinity, GTPγS-sensitive state of A1 and A3 AR, we used the agonist, ^125I-ABA (Linden et al., 1985; Linden et al., 1993). Binding experiments were performed in triplicate with 5 μg (A2A) or 25 μg (A1 and A3) membrane protein in a total volume of 00.1 mL HE buffer (20 mM HEPES and 1 mM EDTA) with 1 U/mL adenosine deaminase and 5 mM MgCl2 with or without 50 μM GTPγS. Membranes were incubated with radioligands at room temperature for three hours (for agonists) or two hours (for antagonists) in Millipore Multiscreen® 96-well GF/C filter plates and assays were terminated by rapid filtration on a cell harvester (Brandel, Gaithersburg, Md.) followed by 4×150 μl washes over 30 seconds with ice cold 10 mM Tris-HCl, pH 7.4, 10 mM MgCl2. Nonspecific binding was measured in the presence of 50 μM NECA. Competition binding assays were performed as described (Robeva et al., 1996) using 0.5-1 nM ^125I-APE, ^125I-ZM241385, or ^125I-ABA. […] The Ki values for competing compound binding to a single site were derived from IC50 values with correction for radioligand and competing compound depletion as described previously (Linden, 1982).

T2 sequence (P29274 whole entry): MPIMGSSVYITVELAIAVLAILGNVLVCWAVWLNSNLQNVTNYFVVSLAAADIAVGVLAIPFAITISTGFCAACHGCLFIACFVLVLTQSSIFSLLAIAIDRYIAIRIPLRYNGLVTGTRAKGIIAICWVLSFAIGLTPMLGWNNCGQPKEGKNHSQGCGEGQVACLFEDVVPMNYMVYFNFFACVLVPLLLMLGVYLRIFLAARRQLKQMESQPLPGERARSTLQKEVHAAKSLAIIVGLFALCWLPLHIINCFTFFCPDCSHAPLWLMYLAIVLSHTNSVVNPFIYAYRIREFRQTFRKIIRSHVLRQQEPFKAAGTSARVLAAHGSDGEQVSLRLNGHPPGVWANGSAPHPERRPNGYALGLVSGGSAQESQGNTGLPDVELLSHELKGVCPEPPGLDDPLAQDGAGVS

Structure (SMILES)	Ki (human A1 AR)	EC50 [1]	Ki [2]	Ki (human A3 AR)
CCNC(=O)[C@H]1O[C@@H](n2cnc3c(N)nc(C#CCC4CCN(C(=O)Oc5ccc(F)c(F)c5)CC4)nc32)[C@@H](O)C1O (some centres unmarked) [Compound 50, N-Ethyl 2-{3-[1-(3,4-difluorophenoxycarbonyl)-4-piperidinyl]-1-propyn-1-yl}adenosine-5′-uronamide]	< 100 nM	< 1 nM	< 1 nM	< 100 nM
Nc1nc(C#CCC2CCN(C(=O)Oc3cccc(C(F)(F)F)c3)CC2)nc2c1ncn2[C@@H]1O[C@H](C(=O)NC2CC2)C(O)[C@@H]1O (some centres unmarked) [Compound 3, N-Cyclopropyl 2-{3-[1-(3-(trifluoromethyl)phenoxycarbonyl)-4-piperidinyl]-1-propyn-1-yl}adenosine-5′-uronamide]	< 100 nM	< 10 nM	< 1 nM	< 100 nM
Nc1nc(C#CCC2CCN(C(=O)Oc3ccc(Cl)c(Cl)c3)CC2)nc2c1ncn2[C@@H]1O[C@H](CO)C(O)[C@@H]1O (some centres unmarked) [Compound 55, 2-{3-[1-((3,4-Chloro)phenoxycarbanoyl)piperidin-4-yl]propyn-1-yl}adenosine]	< 100 nM	< 10 nM	< 1 nM	< 10 nM
Nc1nc(C#CCC2CCN(C(=O)Oc3cccc(C(F)(F)F)c3)CC2)nc2c1ncn2[C@@H]1O[C@H](CO)C(O)[C@@H]1O (some centres unmarked) [Compound 6, 2-{3-[1-((3-Trifluoromethyl)phenoxycarbonyl)piperidin-4-yl]propyn-1-yl}adenosine]	< 100 nM	< 10 nM	< 1 nM	< 10 nM
Nc1nc(C#CCC2CCN(C(=O)Nc3cccc(Cl)c3)CC2)nc2c1ncn2[C@@H]1O[C@H](CO)C(O)[C@@H]1O (some centres unmarked) [Compound 46]	< 100 nM	< 100 nM	< 10 nM	< 100 nM
Nc1nc(C#CCC2CCN(C(=O)Oc3ccccc3Cl)CC2)nc2c1ncn2[C@@H]1O[C@H](C(=O)NC2CC2)C(O)[C@@H]1O (some centres unmarked) [Compound 22, N-Cyclopropyl 2-{3-[1-(2-chlorophenyloxycarbonyl)-4-piperidinyl]-1-propyn-1-yl}adenosine-5′-uronamide]	< 100 nM	< 10 nM	< 1 nM	> 100 nM
COC(=O)c1ccc(OC(=O)N2CCC(CC#Cc3nc(N)c4ncn([C@@H]5O[C@H](CO)[C@@H](O)[C@H]5O)c4n3)CC2)cc1 [Compound 13, 2-{3-[1-((4-Methoxycarbonylphenoxy)carbonyl)piperidin-4-yl]propyn-1-yl}adenosine]	< 100 nM	< 10 nM	< 1 nM	< 100 nM
Nc1nc(C#CCC2CCN(C(=O)OCc3ccccc3)CC2)nc2c1ncn2[C@@H]1O[C@H](C(=O)NC2CC2)C(O)[C@@H]1O (some centres unmarked) [Compound 2, N-Cyclopropyl 2-{3-[1-(benzyloxycarbonyl)-4-piperidinyl]-1-propyn-1-yl}adenosine-5′-uronamide, reference compound]	< 100 nM	< 1 nM	< 1 nM	< 100 nM
CCNC(=O)[C@H]1O[C@@H](n2cnc3c(N)nc(C#CCC4CCN(C(=O)Oc5ccc([N+](=O)[O-])cc5)CC4)nc32)[C@@H](O)C1O (some centres unmarked) [Compound 19, N-Ethyl 2-{3-[1-(4-nitrophenyloxycarbonyl)-4-piperidinyl]-1-propyn-1-yl}adenosine-5′-uronamide]	< 100 nM	< 1 nM	< 1 nM	< 10 nM
Nc1nc(C#CCC2CCN(C(=O)OCc3ccc([N+](=O)[O-])cc3)CC2)nc2c1ncn2[C@@H]1O[C@H](C(=O)NC2CC2)C(O)[C@@H]1O (some centres unmarked) [Compound 18, N-Cyclopropyl 2-{3-[1-(4-nitrobenzloxycarbonyl)-4-piperidinyl]-1-propyn-1-yl}adenosine-5′-uronamide]	< 100 nM	< 1 nM	< 1 nM	< 100 nM
COc1ccc(OC(=O)N2CCC(CC#Cc3nc(N)c4ncn([C@@H]5O[C@H](CO)[C@@H](O)[C@H]5O)c4n3)CC2)cc1 [Compound 28, 2-{3-[1-((4-Methoxy)phenoxycarbanoyl)piperidin-4-yl]propyn-1-yl}adenosine]	< 100 nM	< 10 nM	< 1 nM	< 100 nM
